One assay has as its system Aged rats. The experiment in a line: Novel Object Recognition Test (NORT) in aged rats. It is filed as in vivo, male Wistar rats. Conditions: 27 days after single 20 ng/animal i.c.v. The protocol:
Aged rats (male Wistar rats, 18-20 months old) were divided into four groups: two vehicle-treated (groups 1 and 3) and two G-2-AllylP treated (groups 2 and 4) (all groups n=6-8). Cyclic G-2-AllylP was synthesised by the Department of Medicinal Chemistry and dissolved in normal saline before the treatment. On day 1 a single dose of cyclic G-2-AllylP was given centrally (20 ng/animal, i.c.v.) to the animals in groups 2 and 4; saline was administered to groups 1 and 3. The memory tests using Novel Object Recognition Test started either on day 3 (groups 1 and 2) or 24 (groups 3 and 4) after the treatment. On the completion of the NORT, the rats were killed with an overdose of sodium pentobarbital and were perfused transcardially with normal saline followed by 10% formalin. Tissues collected at day 7 in groups 1 and 2, and at day 28 from groups 3 and 4. The brains were kept in the same fixative for a minimum of 2 days before being processed using a standard paraffin embedding procedure. Briefly, small blocks (10×10×3 mm) of tissue were fixed for up to 24 hrs. The blocks were then infiltrated and embedded with paraffin and cut in ribbons and mounted on slides. Slides were then stored until immunostaining was commenced. Synaptogenesis in brain tissue was examined using immunohistochemical staining. […]

The subject of assay [1] is rats exposed to hypoxic-ischemic injury (HI). The experiment in a line: Hypoxic-ischemic injury (HI), modified Levine model, tissue damage score. It is filed as in vivo, Wistar rats. The source says: Adult rats (Wistar, 280-310 g, male) were used. The modified Levine model preparation and experimental procedures were used (Rice et al, 1981, Ann. Neurol. :9: 131-141; Guan et al J., 1993, Cereb. Blood Flow Metab.: 13(4): 609-16). These procedures in brief, consist of an HI injury induced by unilateral carotid artery ligation followed by inhalational asphyxia in the animals with an implanted lateral ventricular cannula. A guide cannula was stereotaxically placed on the top of the dura 1.3 mm to the right of the mid-line and 7.3 mm anterior to the interaural zero plane under halothane anaesthesia. The right carotid artery was double ligated two days after the cannulation. After 1 hour recovery from the anaesthesia, each of the rats were placed in an incubator where the humidity (90±5%) and temperature (31°±0.5° C.) were controlled for another hour, then exposed to hypoxia (6% oxygen) for 10 min. […]
Coronal sections 8 μm in thickness were cut from the striatum, cerebral cortex and hippocampus and were stained with thionin and acid fuchsin. The histological outcome was assessed at three levels: (1) the mid level of the striatum, (2) where the completed hippocampus first appeared and (3) the level where the ventral horn of the hippocampus just appears. The severity of tissue damage was scored in the striatum, cortex and the CA1-2, CA3, CA4 and dentate gyrus of the hippocampus. […]

The next assay concerns fmr1-knockout animals. The assay can be described thus: Sociability: bouts of sniffing a novel mouse. The assay is classed as in vivo, mice. The settings on record: p<0.001. The protocol: Social recognition and social memory in mice were evaluated by the amount of time spent sniffing a novel mouse upon repeated exposures, to induce familiarity, and reinstatement of high levels of sniffing when a novel stimulus animal is introduced. We measured the number of bouts of sniffing in each of the groups of animals.

Another assay has as its system ERK1/2. The experiment in a line: Phosphorylated ERK by Western blot. It is filed as in vivo, mice. The settings on record: full brain lysates; fmr1-knockout animals vs vehicle. The protocol: Phosphorylation levels of ERK1/2 and Akt of full brain lysates were evaluated using Western blots. The mice were sacrificed and the brains removed 12 days after the last injection, and immediately after the last behavioral test. Other studies measured pERK and pAkt in blood lymphocytes. The results of Western analysis were normalized to the amount of GAPDH protein seen in each blot.

Assay [2] deals with neurons in the CA3 region of the hippocampus. The experiment in a line: Neuron soma size in the hippocampus. It is filed as in vivo, mice. The protocol:
We also measure the effect of cG-2-AllylP treatment on neuron soma size in the hippocampus. Mice are treated with cG-2-AllylP as described above for locomotor activity.

Assay [3] has as its system heterozygous Shank3-deficient mice. The assay can be described thus: Shank3-deficient mice: olfactory habituation/dishabituation. It is filed as in vivo. Conditions: all 4 groups. The protocol: 1 to 3 month old wild-type and heterozygous Shank3-deficient mice are divided into 4 treatment groups: placebo treated wild-type, placebo treated Shank3-deficient group and two Shank3-deficient cG-2-AllylP treated groups. The animals are given placebo (water) or cG-2-AllylP formulated in water administered orally, b.i.d for 14 days. cG-2-AllylP is administered at two doses: 15 or 60 mg/kg.
Olfactory habituation/dishabituation testing is conducted in male and female mice for each group. The methodology is as previously described (Silverman et al 2010, Yang et al 2009 and Silverman et al 2010). Non-social and social odors are presented on a series of cotton swabs inserted into the home cage sequentially, each for 2 min, in the following order; water, water, water (distilled water); almond, almond, almond (1:100 dilution almond extract); banana, banana, banana (1:100 dilution artificial banana flavouring); social 1, social 1, social 1 (swiped from the bottom of a cage housing unfamiliar sex-matched B6 mice); and social 2, social 2, social 2 (swiped from the bottom of a second cage housing a different group of unfamiliar sex-matched 129/SvImJ mice). One-way repeated measures ANOVA is performed within each treatment group for each set of habituation events and each dishabituation event, followed by a Tukey post hoc test.

Molecules are shown by their SMILES.

Consider one compound from US11197856B2, “Bicyclic compounds and methods for their use in treating autism” (priority 2013, dated 2021).

For the compound `C=CC[C@]12CCCN1C(=O)CNC2=O` [cG-2-AllylP, (8aS)-Allyl-hexahydropyrrolo[1,2-a]pyrazine-1,4-dione], the “novelty recognition (NORT)” value in the assay with Aged rats is recorded as “trend to improve the novelty recognition”. Further, the tissue damage score result in assay [1] (2 ng icv 2 hours after HI, each brain region, vs vehicle p<0.001) is given as “significantly reduced the tissue damage in each brain region examined”. The “neural damage after hypoxia/ischemia” value in assay [1] (2, 4, 20, 100 ng icv, all other sites and all other doses) was “lessened the neural damage effects of hypoxia/ischemia”. For the same compound, the bouts of sniffing result with fmr1-knockout animals is “about 21”. For the same compound, the ERK phosphorylation result in the assay on ERK1/2 is recorded as “significantly reduced ERK phosphorylation”. Besides, the average soma size result in assay [2] (KO animals) is recorded as “increases average soma size in KO animals”. Further, the soma size result in assay [2] (wild type animals) is on record as “little or no effect on soma size in wild type animals”. The olfactory habituation entry in assay [3] is “normal levels of habituation”.
